This passage reports melting point results from a melting point compilation (Tetko et al.; mined from patent text by program, amines drawn as free bases though some values may be those of a salt).

Each structure is given as a SMILES string.

For the molecule `Cc1c(C(=O)c2cnn(C)c2O)ccc2sc(=O)n(C)c12`, the melting point fell in the range of 192 to 195 °C. Molecule `COC(=O)Nc1nc2ccccc2n1C(=O)NCC1(C)CC(NC(=O)n2c(NC(=O)OC)nc3ccccc32)CC(C)(C)C1` (stereo not given) gave a melting point of 82 to 83 °C. With `CCN(CC)C(=O)c1ccc(C(c2cccc(O)c2)N2CC(C)NCC2C)cc1` (stereo not given) the figure was 175 to 177 °C.

In turn, `N#CCc1ccc(C2CCCCC2)cc1` yielded a melting point of 48 to 49 °C.

Regarding `CCC(O)(CC(=O)OC(C)(C)C)c1ccn(Cc2cc3cc(OCc4ccccc4)c(F)cc3nc2I)c(=O)c1` (stereo not given), the melting point worked out at 174 °C. `Nc1cccc(NC(=O)C(F)(F)C(F)(F)F)c1` displayed a melting point of 86 to 88 °C.

Molecule `CNC(=O)N1CCC(=NO)c2cc(Cl)ccc21` returned a melting point of 211 to 212 °C. In the case of `Cc1cc2c(cc1O)C(C)(C)CC(C)(c1cc(O)c(C)cc1O)O2` (stereo not given), the melting point is 190 °C. `Cc1[nH]c(-c2ccccc2)c2nc[nH]c(=O)c12` returned a melting point of 295 to 296 °C. Consider `CC(C)(C)c1cc(C(C)(CC(=O)O)c2ccc(O)c(C(C)(C)C)c2)ccc1O`, for which the melting point is 156 °C. `Cc1cnc2sc(Sc3ccccc3)nn2c1=O` showed a melting point of 141 to 143 °C. Regarding `CC(C)c1cc(O)cc2c1C(=O)N(CBr)S2(=O)=O`, the melting point is 167 to 169 °C. For the molecule `C=C1CC(COc2cccc3cccnc23)(c2ccccc2)OC1=O` (stereo not given), the melting point was 101 to 102 °C.

In turn, `COCCc1nc2c(N)nc3ccccc3c2n1Cc1ccccc1` showed a melting point of 202 to 204 °C. On to `CCCNC(=S)Nc1nc(OCc2cccc(C#N)c2)ncc1F`, for which the melting point lay in the range of 163 to 165 °C. The same measure for `CC(=O)Oc1cccnc1-n1ccnc1SCc1ccccc1N1CCOCC1`: 89 to 91 °C; for `O=C1NC(=O)C(=Cc2ccc(N3CCC(NC[C@H](O)COc4ccccc4)CC3)cc2)S1`: 208 to 210 °C.

The molecule `CC(=O)OCNC(=O)c1cc(Cl)nc(Cl)c1` showed a melting point of 94 to 95 °C. The molecule `Fc1cc(OCc2ccccc2)cnc1Cl` registered a melting point of 48 to 52 °C. With `COc1cc(C(=O)O)ccc1Cc1cn(C)c2ccc(C(=O)NCCC(C)C)cc12`, the melting point lay in the range of 190 to 191 °C. With `CC(C)(C)S(=O)(=O)N1C[C@@H](F)C[C@@H]1c1cc(F)cc(C#N)c1` the figure was 182 to 184 °C; with `Fc1ccc(Cn2c(OC3CCNCC3)nc3cncnc32)cc1`, 79.3 °C. In turn, `CCOC(Cc1ccc(OCc2nc(C(C)(C)C)oc2C)c2ccccc12)C(=O)O` (stereo not given) showed a melting point of 185 to 186 °C.

`CC(C)C[C@H]1[C@@H]2C(=O)N(Cc3ccccc3)C(=O)[C@@H]2[C@H](c2ccc(C#N)cc2)N1C` (racemic) returned a melting point of 173 to 174 °C. Consider `Cc1cccc(-c2nc3cccnn3c2-c2ccnc(NCC(C)(C)C)c2)c1`, for which the melting point was in the range of 157 to 158 °C.

Molecule `CC(=CC(=O)Nc1ccccc1OCCCC(=O)O)c1ccc2c(ccn2C(c2ccccc2)c2ccccc2)c1` displayed a melting point of 158 to 162 °C. As to `COc1cc(CO)c(N)c(OC)c1OC`, the melting point lay in the range of 56 to 58 °C. `COc1ccc(-c2cc(=Nc3c(C)cc(C)cc3C)n(C)c(Cl)n2)cc1OC` displayed a melting point of 159 to 162 °C.

With `COCCC1CCN(c2ccc(C#N)c3ccccc23)CC1`, the melting point lay in the range of 95 to 96 °C. Take `c1cc(OC[C@H]2CO2)c2cccnc2c1`: the melting point lay in the range of 79 to 81 °C. As to `O=c1[nH]c2c(cc1-c1noc(C3CC3)n1)CN(Cc1ccccc1)CC2`, the melting point is 187 to 190 °C.

Consider `COc1ccccc1CC(=O)N1C[C@H]2C(c3ccccc3OC)=CCC(c3ccccc3)(c3ccccc3)[C@H]2C1`, for which the melting point came out at 142 °C. The same measure for `Cc1nc2c(N)nc3ccccc3c2n1C`: 288 to 290 °C. With `CCn1c(COC(=O)NC(C)=O)nc(C(C)C)c1Sc1cc(Cl)cc(Cl)c1`, the melting point lay in the range of 163 to 164 °C. Turning to `CS(=O)(=O)NCCCCCC1CCSS1` (stereo not given), the melting point lay in the range of 43 to 46 °C.

Usually melting point stands for the temperature of the solid-liquid transition.
